Measurements as given in patent US10106556B2, “Heterocyclic compound” (TAKEDA PHARMACEUTICAL COMPANY LIMITED, priority 2015, dated 2018).

Biological target: T1, His-hMAGL (recombinant polyhistidine tagged human MAGL protein) (Homo sapiens, UniProt Q99685)
T1 construct: made in house; host or cells: E. coli BL21(DE3)
T1 sequence (Q99685 1-303): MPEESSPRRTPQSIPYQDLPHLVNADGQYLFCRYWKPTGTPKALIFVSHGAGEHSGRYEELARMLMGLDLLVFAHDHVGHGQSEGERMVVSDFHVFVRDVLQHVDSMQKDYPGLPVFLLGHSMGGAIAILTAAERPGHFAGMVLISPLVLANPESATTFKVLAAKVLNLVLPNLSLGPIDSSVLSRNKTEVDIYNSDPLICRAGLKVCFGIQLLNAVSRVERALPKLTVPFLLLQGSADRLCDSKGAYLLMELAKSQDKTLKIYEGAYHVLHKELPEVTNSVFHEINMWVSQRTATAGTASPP
Experiment: Measurement of MAGL inhibitory activity (arachidonic acid production from 2-arachidonylglycerol, RapidFire-mass spectrometry)
Type: biochemical
Details: MAGL inhibitory rate at 10 μM test compound; 60 min preincubation with His-hMAGL, 2-arachidonylglycerol substrate, 10 min reaction at room temperature
In short: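 Inhibition (%) was derived from arachidonic acid levels relative to enzyme-free and compound-free groups. Product was measured by online C4 solid-phase extraction and triple-quadrupole MS in negative SRM mode, corrected by arachidonic acid-d8 (3 μM in the acetonitrile added). Substrate was 2-arachidonylglycerol; enzyme was His-tagged recombinant human MAGL.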

SMILES | inhibition at 10 µM [%]
Cc1c(-c2cc(Cl)ccc2OCC2CN(C(=O)c3cc4c(cc3F)OCC(=O)N4)C2)cnn1C [Example 266, 6-((3-((4-chloro-2-(1,5-dimethyl-1H-pyrazol-4-yl)phenoxy)methyl)azetidin-1-yl)carbonyl)-7-fluoro-2H-1,4-benzoxazin-3(4H)-one] | 99
O=C1COc2ccc(C(=O)N3CCC(COc4cc(Cl)cc(Cl)c4)CC3)cc2N1 [Example 45, 6-((4-((3,5-dichlorophenoxy)methyl)piperidin-1-yl)carbonyl)-2H-1,4-benzoxazin-3(4H)-one] | 98
Cc1ccc(OCC2CN(C(=O)c3cc4c(cc3F)OCC(=O)N4)C2)cc1F [Example 269, 7-fluoro-6-((3-((3-fluoro-4-methylphenoxy)methyl)azetidin-1-yl)carbonyl)-2H-1,4-benzoxazin-3(4H)-one] | 101
Cc1ccc(OCC2CN(C(=O)c3cc4c(cc3F)OCC(=O)N4)C2)cc1 [Example 161, 7-fluoro-6-((3-((4-methylphenoxy)methyl)azetidin-1-yl)carbonyl)-2H-1,4-benzoxazin-3(4H)-one] | 102
Cc1ccc(OCC2CN(C(=O)c3cc4c(cc3F)OCC(=O)N4)C2)cc1C [Example 163, 6-((3-((3,4-dimethylphenoxy)methyl)azetidin-1-yl)carbonyl)-7-fluoro-2H-1,4-benzoxazin-3(4H)-one] | 100
O=C1COc2cc(F)c(C(=O)N3CC(COc4ccc(Cl)cc4)C3)cc2N1 [Example 111, 6-((3-((4-chlorophenoxy)methyl)azetidin-1-yl)carbonyl)-7-fluoro-2H-1,4-benzoxazin-3(4H)-one] | 98
Cc1ccc(OCC2CN(C(=O)c3cc4c(cc3F)OCC(=O)N4)C2)c(C)n1 [Example 141, 6-((3-(((2,6-dimethylpyridin-3-yl)oxy)methyl)azetidin-1-yl)carbonyl)-7-fluoro-2H-1,4-benzoxazin-3(4H)-one] | 102
Cc1cc(OCC2CN(C(=O)c3cc4c(cc3F)OCC(=O)N4)C2)ccc1Cl [Example 184, 6-((3-((4-chloro-3-methylphenoxy)methyl)azetidin-1-yl)carbonyl)-7-fluoro-2H-1,4-benzoxazin-3(4H)-one] | 100
O=C1COc2ccc(C(=O)N3CCC(COc4ccccc4Cl)CC3)cc2N1 [Example 24, 6-((4-((2-chlorophenoxy)methyl)piperidin-1-yl)carbonyl)-2H-1,4-benzoxazin-3 (4H)-one] | 101
CCc1ccc(-c2ccnc(C)c2OCC2CN(C(=O)c3cc4c(cc3F)OCC(=O)N4)C2)nc1 [Example 176, 6-((3-(((5-ethyl-2′-methyl-2,4′-bipyridin-3′-yl)oxy)methyl)azetidin-1-yl)carbonyl)-7-fluoro-2H-1,4-benzoxazin-3(4H)-one] | 95
Cc1cc(-c2ccc(OCC3CN(C(=O)c4cc5c(cc4F)OCC(=O)N5)C3)c(F)c2)ccn1 [Example 264, 7-fluoro-6-((3-((2-fluoro-4-(2-methylpyridin-4-yl)phenoxy)methyl)azetidin-1-yl)carbonyl)-2H-1,4-benzoxazin-3(4H)-one] | 101
O=C1COc2cc(F)c(C(=O)N3CC(COc4ccc(-c5cncc(Cl)c5)cc4F)C3)cc2N1 [Example 235, 6-((3-((4-(5-chloropyridin-3-yl)-2-fluorophenoxy)methyl)azetidin-1-yl)carbonyl)-7-fluoro-2H-1,4-benzoxazin-3(4H)-one] | 100
O=C1COc2ncc(C(=O)N3CCC(COc4ccccc4C(F)(F)F)CC3)cc2N1 [Example 19, 7-((4-((2-(trifluoromethyl)phenoxy)methyl)piperidin-1-yl)carbonyl)-1H-pyrido [2,3-b][1,4]oxazin-2(3H)-one] | 100
CC(Oc1ccc2cn[nH]c2c1)C1CN(C(=O)c2cc3c(cc2F)OCC(=O)N3)C1 (stereo not shown) [Example 299, 7-fluoro-6-((3-(1-(1H-indazol-6-yloxy)ethyl)azetidin-1-yl)carbonyl)-2H-1,4-benzoxazin-3(4H)-one] | 100
O=C1COc2ccc(C(=O)N3CC(OCc4ccc(Cl)cc4Cl)C3)cc2N1 [Example 325, 6-((3-((2,4-dichlorobenzyl)oxy)azetidin-1-yl)carbonyl)-2H-1,4-benzoxazin-3(4H)-one] | 101
N#Cc1ccc(OCC2CN(C(=O)c3cc4c(cc3F)OCC(=O)N4)C2)c(Cl)c1 [Example 92, 3-chloro-4-((1-((7-fluoro-3-oxo-3,4-dihydro-2H-1,4-benzoxazin-6-yl)carbonyl)azetidin-3-yl)methoxy)benzonitrile] | 99
Cc1cc(-c2cc(Cl)ccc2OCC2CN(C(=O)c3cc4c(cc3F)OCC(=O)N4)C2)n(C)n1 [Example 223, 6-((3-((4-chloro-2-(1,3-dimethyl-1H-pyrazol-5-yl)phenoxy)methyl)azetidin-1-yl)carbonyl)-7-fluoro-2H-1,4-benzoxazin-3(4H)-one] | 102
O=C1COc2ncc(C(=O)N3CCC(COc4cc(F)ccc4Cl)CC3)cc2N1 [Example 21, 7-((4-((2-chloro-5-fluorophenoxy)methyl)piperidin-1-yl)carbonyl)-1H-pyrido[2,3-b][1,4]oxazin-2(3H)-one] | 99
N#Cc1cc(C(F)(F)F)ccc1OCC1CCN(C(=O)c2cc3c(cc2F)OCC(=O)N3)CC1 [Example 68, 2-((1-((7-fluoro-3-oxo-3,4-dihydro-2H-1,4-benzoxazin-6-yl)carbonyl)piperidin-4-yl)methoxy)-5-(trifluoromethyl)benzonitrile] | 96
